Patent US10201535B2 (priority 2011, dated 2019)

Legend:
[1] = test system: UVB-induced erythema, cutaneous vessel dilation and tactile hypersensitivity in SKH1 hairless mice; test: Ultraviolet B-Induced Mouse Sunburn Model; assay type: in vivo
Description: SKH1 hairless mice, lying on their stomachs with their left sides covered, were exposed to UVB at an intensity of 120 mJ/cm^2 for 91 sec. […] At various timepoints up to 48 hrs post UVB-irradiation, the following assessments were made:
1. Vasculature area in the exposed and unexposed ears by image analysis of digital photos using ImagePro Premier (Media Cybernetics) software. Images are converted to gray-scale, expanded and thresholding, based on each ear's baseline pixel values, is applied to the images. Thresholding differentiates the desired “object” features (i.e. vasculature network) from the background (i.e. skin tissue). The “object” pixels are then quantified and reported as the vasculature area.
2. Erythema on the exposed and unexposed back using a Chromameter (Konica Minolta).
3. Tactile hypersensitivity assessment using a paint brush test. The hypersensitivity is assessed by light stroking of the flank of the mice with a small paint brush every 5 min over 35 min. The behavioral response is scored as follows: 0, no response; 1, mild squeaking with attempts to move away from the brush; 2, vigorous squeaking evoked by the brush, biting at the brush and strong efforts to escape. The scores at the eight timepoints are summed so the maximum hypersensitivity score for each mouse can be 16. The exposed (right) and unexposed (left) flanks were scored independently.

[2] = test system: 37° C. induced vessel dilation (cutaneous blood flow) in rat paws; test: Rat Blood Flow Assay (laser Doppler flowmetry, hind foot pad); assay type: in vivo; settings: 4 days of topical dosing (once per day), 0.1%, hairless CD rats
Method: A laser Doppler microvascular perfusion monitor (laser Doppler flowmetry technique, LDF) was used to monitor red blood cell perfusion in the microvasculature of the hind foot pad. The laser doppler flowmetry (LDF) is an OxyFlo Microvascular Perfusion Monitor, from Oxford Optronix Ltd. UK.
Briefly, 15 μL of test articles was applied topically once, or repeatedly (once daily for 4 consecutive days) to one hind foot pad of anaesthetized hairless CD rats and 15 μL of vehicle was applied to the other footpad.
At various timepoints up to 8 hrs following the last test article administration, dynamic blood flow changes were measured and recorded every 15 seconds for 4 minutes per temperature interval for 5 intervals (22° C.→37° C.→4° C.→37° C.→22° C.).
Rats were placed on a 37° C. heat pad to increase their temperature and on an ice pad to decrease their temperature to 4° C. The levels of blood flow in the two paws were compared.
The % blood flow inhibition is calculated as the % difference in the AUC of peak 1 (first 8 min heating and cooling interval) of the laser doppler recordings between the drug-treated and vehicle-treated paws. Data are the mean % inhibition values from 8-10 rats per group.

[3] = Method: To assure the integrity of each skin section, its permeability to tritiated water was determined before application of the test products.
[4] = test system: LL-37-induced skin inflammation; test: LL-37-Induced Skin Inflammation Mouse Model (ear swelling); assay type: in vivo; settings: at 6 and 9 hrs after topical treatment, gel on ears of BALB/c mice
Method: One hour following application, the left ear was intradermally injected with LL-37 peptide and the right ear was injected with phosphate-buffered saline (PBS). Ear thickness measurements were made with a digital caliper (Mitutoyo) at various timepoints up to 8 hrs post-injection with LL-37. Ear swelling is an indicator of inflammation.
The data are the mean values from 9-10 mice per group.

[5] = test system: UVB-exposed skin of SKH1 hairless mice; test: Mouse Model of UV-Induced Erythema (histology of back skin); assay type: in vivo; settings: for mice with overall healing good to excellent / EPIDERMIS Hyperplasia / DERMIS Congestion / DERMIS Edema / DERMIS Infiltrates / EPIDERMIS Disorganization / EPIDERMIS Necrosis / EPIDERMIS Separation: skin 48 hours after UVB; for EPIDERMIS Hyperplasia / DERMIS Congestion / DERMIS Edema / DERMIS Infiltrates / EPIDERMIS Disorganization / EPIDERMIS Necrosis / EPIDERMIS Separation: mean grade
Method: The right backs of male SKH1 hairless mice were exposed to 120 mJ/cm^2 UVB radiation, while the left sides were shielded. […] An additional group with vehicle applied topically at 20 minutes post UVB exposure served as a control. Samples of skin from the backs from both left and right sides were collected 48 hours following UVB exposure and examined histologically.
Each endpoint is graded on a scale of 0-4 (0=no findings, 1=minimal, 2=mild, 3=moderate, 4=marked). Data are expressed as the mean of values from 6 mice per group.

[6] = 0.1% topical, 20 minutes following UVB exposure
[7] = scale 0-4, 0.1% topical 20 min after UVB
[8] = scale 0-4, 0.1% topical 4 hr after UVB
[9] = scale 0-4, 0.1% topical 8 hr after UVB

Compound: c1cnc2c(c1)CC[C@H](Cc1c[nH]cn1)C2 [(S)-(+)-7-(1H-Imidazol-4-ylmethyl)-5,6,7,8-tetrahydro-quinoline]
- duration of statistically significant reduction of erythema to nearly baseline levels (chromameter) ([1]; topical dosing to the back 30 min following UVB exposure): at least 48 hrs
- tactile hypersensitivity (paint brush test) ([1]; topical dosing to the back 30 min following UVB exposure, assessed 4 hrs following UVB irradiation, both UV-exposed and control sides): statistically significant reduction of tactile hypersensitivity
- duration of statistically significant cutaneous vasoconstriction (reduction of cutaneous vasculature area) to nearly baseline levels ([1]; topical dosing to the ear 30 min following UVB exposure): at least 48 hrs
- duration of statistically significant inhibition of 37° C. induced vessel dilation [2]: at least 6 hrs
- penetration into and through skin [3]: does penetrate into and through ex vivo human trunk skin
- distribution in skin layers (mass recovered) ([3]; 48 hour dose exposure, 0.58% (w/w) dose, FIG. 3): higher concentration in the epidermis
- rate of percutaneous absorption (flux into receptor solution) ([3]; human): increased rate of flux at the 18 and 36 hr timepoints
- inhibition of LL-37-induced skin inflammation (ear swelling) [4]: statistically significant inhibition
- edema, mixed inflammatory cell infiltrates and vascular congestion of the underlying dermis [5, 6]: significantly reduced
- outcome of healing of UVB-exposed back skin [5, 6]: significantly improved the outcome of healing
- mice with overall healing good to excellent ([5]; 0.1% topical, treated at 20 minutes post UVB exposure): 75%
- mice with overall healing good to excellent ([5]; 0.1% topical, treated at 4 hours post UVB exposure): 50%
- mice with overall healing good to excellent ([5]; 0.1% topical, treated at 8 hours post UVB exposure): 60%
- mice with epidermal failure (moderate to marked separation and necrosis) ([5]; 0.1% topical, treated up to 8 hours following UVB exposure (all treated mice)): 8%
- EPIDERMIS Hyperplasia ([5]; scale 0-4 (0=no findings, 4=marked), 0.1% topical 20 min after UVB): 3.0
- DERMIS Congestion [5, 7]: 1.0
- DERMIS Edema [5, 7]: 0.5
- DERMIS Infiltrates [5, 7]: 0.8
- EPIDERMIS Disorganization [5, 7]: 2.0
- EPIDERMIS Necrosis [5, 7]: 0.5
- EPIDERMIS Separation [5, 7]: 0.3
- DERMIS Congestion [5, 8]: 1.8
- DERMIS Edema [5, 8]: 2.0
- DERMIS Infiltrates [5, 8]: 2.0
- EPIDERMIS Disorganization [5, 8]: 3.0
- EPIDERMIS Hyperplasia [5, 8]: 2.3
- EPIDERMIS Necrosis [5, 8]: 1.3
- EPIDERMIS Separation [5, 8]: 1.3
- DERMIS Congestion [5, 9]: 1.0
- DERMIS Edema [5, 9]: 1.5
- DERMIS Infiltrates [5, 9]: 0.8
- EPIDERMIS Disorganization [5, 9]: 2.0
- EPIDERMIS Hyperplasia [5, 9]: 3.3
- EPIDERMIS Necrosis [5, 9]: 1.0
- EPIDERMIS Separation [5, 9]: 1.3
